Experimental data as given in patent US7294687B2, “Parenteral formulations of a peptide for the treatment of systemic lupus erythematosus” (TEVA Pharmaceutical Industries, Ltd., priority 2003, dated 2007).

Tested on: IFN-γ secretion by LN cells
Test: IFN-γ secretion by cultured LN cells of immunized and treated mice, ELISA
Format: in vivo, BALB/c mice
Procedure: A group of 20 mice were immunized with 50 μg/mouse of Compound 1 RS. The immunized mice were allocated to five treatment groups as follows: placebo, 25, 50, 100 and 200 μg/mouse of Compound 1 DP (subcutaneous administration). Ten days post immunization and treatment, LN was extracted and single cell suspension was prepared. The in-vitro secretion of IFN-γ and TGF-β by the cultured cells in response to activation with several concentrations of Compound 1 RS was then measured. [table] [table] […] Mice were sacrificed by cervical dislocation. LN were extracted from the hind legs and were transferred to a sterile petri dish containing about 5 mL RPMI. The cells were extracted by gentle squeezing of the tissue against a 200 micrometer mesh stainless steel net. The cells were collected and centrifuged at 300 G for 10 minutes at RT. Single cell suspensions were prepared from pooled LN of each experimental group. […] Secretion of IFN-γ and TGF-β, as indication of cellular response, were determined by ELISA of culture media (48 hrs for IFN-γ and 72 hrs for TGF-β). [table]

H-GYYWSWIRQPPGKGEEWIG-OH [Compound 1] was tested, and the “Final cytokine (IFN-γ secretion)” value (Compound 1 DP 25 μg/M s.c., 5 million cells/well, activation Compound 1 RS 3.125 μg/ml) was “BQL”, the “Final cytokine (IFN-γ secretion)” value (Compound 1 DP 25 μg/M s.c., 5 million cells/well, activation Compound 1 RS 6.25 μg/ml) was “BQL” and the “Final cytokine (IFN-γ secretion)” value (Compound 1 DP 25 μg/M s.c., 5 million cells/well, activation Compound 1 RS 12.5 μg/ml) was 41.9 pg/mL. For the same substance, the “Final cytokine (IFN-γ secretion)” value (Compound 1 DP 25 μg/M s.c., 5 million cells/well, activation Compound 1 RS 50 μg/ml) was 104.2 pg/mL, the “Final cytokine (IFN-γ secretion)” value (Compound 1 DP 25 μg/M s.c., 5 million cells/well, activation Compound 1 RS 100 μg/ml) was 185.2 pg/mL and the “Final cytokine (IFN-γ secretion)” value (Compound 1 DP 25 μg/M s.c., 5 million cells/well, activation Compound 1 RS 25 μ/ml) was 70.0 pg/mL. For the same substance, the “Final cytokine (IFN-γ secretion)” value (Compound 1 DP 25 μg/M s.c., 5 million cells/well, activation Con A) was 2995.3 pg/mL, the “Final cytokine (IFN-γ secretion)” value (Compound 1 DP 50 μg/M s.c., 2.5 million cells/well, activation Compound 1 RS 3.125 μg/ml) was 54.1 pg/mL and the “Final cytokine (IFN-γ secretion)” value (Compound 1 DP 50 μg/M s.c., 2.5 million cells/well, activation Compound 1 RS 6.25 μg/ml) was 81.8 pg/mL. The “Final cytokine (IFN-γ secretion)” value (Compound 1 DP 50 μg/M s.c., 2.5 million cells/well, activation Compound 1 RS 12.5 μg/ml) was 123.1 pg/mL, the “Final cytokine (IFN-γ secretion)” value (Compound 1 DP 50 μg/M s.c., 2.5 million cells/well, activation Compound 1 RS 50 μg/ml) was 292.5 pg/mL and the “Final cytokine (IFN-γ secretion)” value (Compound 1 DP 50 μg/M s.c., 2.5 million cells/well, activation Compound 1 RS 100 μg/ml) was 531.8 pg/mL. The “Final cytokine (IFN-γ secretion)” value (Compound 1 DP 50 μg/M s.c., 2.5 million cells/well, activation Compound 1 RS 25 μ/ml) was 215.1 pg/mL, the “Final cytokine (IFN-γ secretion)” value (Compound 1 DP 50 μg/M s.c., 2.5 million cells/well, activation Con A) was 356.2 pg/mL and the “Final cytokine (IFN-γ secretion)” value (Compound 1 DP 50 μg/M s.c., 5 million cells/well, activation Compound 1 RS 3.125 μg/ml) was 76.2 pg/mL. For the same substance, the “Final cytokine (IFN-γ secretion)” value (Compound 1 DP 50 μg/M s.c., 5 million cells/well, activation Compound 1 RS 6.25 μg/ml) was 109.2 pg/mL, the “Final cytokine (IFN-γ secretion)” value (Compound 1 DP 50 μg/M s.c., 5 million cells/well, activation Compound 1 RS 12.5 μg/ml) was 179.5 pg/mL and the “Final cytokine (IFN-γ secretion)” value (Compound 1 DP 50 μg/M s.c., 5 million cells/well, activation Compound 1 RS 50 μg/ml) was 373.4 pg/mL. The “Final cytokine (IFN-γ secretion)” value (Compound 1 DP 50 μg/M s.c., 5 million cells/well, activation Compound 1 RS 100 μg/ml) was 547.0 pg/mL, the “Final cytokine (IFN-γ secretion)” value (Compound 1 DP 50 μg/M s.c., 5 million cells/well, activation Compound 1 RS 25 μ/ml) was 277.9 pg/mL and the “Final cytokine (IFN-γ secretion)” value (Compound 1 DP 50 μg/M s.c., 5 million cells/well, activation Con A) was 4837.0 pg/mL. The “Final cytokine (IFN-γ secretion)” value (Compound 1 DP 100 μg/M s.c., 2.5 million cells/well, activation Compound 1 RS 3.125 μg/ml) was 64.5 pg/mL, the “Final cytokine (IFN-γ secretion)” value (Compound 1 DP 100 μg/M s.c., 2.5 million cells/well, activation Compound 1 RS 6.25 μg/ml) was 116.1 pg/mL and the “Final cytokine (IFN-γ secretion)” value (Compound 1 DP 100 μg/M s.c., 2.5 million cells/well, activation Compound 1 RS 12.5 μg/ml) was 180.9 pg/mL. For the same substance, the “Final cytokine (IFN-γ secretion)” value (Compound 1 DP 100 μg/M s.c., 2.5 million cells/well, activation Compound 1 RS 50 μg/ml) was 518.3 pg/mL, the “Final cytokine (IFN-γ secretion)” value (Compound 1 DP 100 μg/M s.c., 2.5 million cells/well, activation Compound 1 RS 100 μg/ml) was 582.7 pg/mL and the “Final cytokine (IFN-γ secretion)” value (Compound 1 DP 100 μg/M s.c., 2.5 million cells/well, activation Compound 1 RS 25 μ/ml) was 262.8 pg/mL. For the same substance, the “Final cytokine (IFN-γ secretion)” value (Compound 1 DP 100 μg/M s.c., 2.5 million cells/well, activation Con A) was 337.4 pg/mL, the “Final cytokine (IFN-γ secretion)” value (Compound 1 DP 100 μg/M s.c., 5 million cells/well, activation Compound 1 RS 3.125 μg/ml) was 90.8 pg/mL and the “Final cytokine (IFN-γ secretion)” value (Compound 1 DP 100 μg/M s.c., 5 million cells/well, activation Compound 1 RS 6.25 μg/ml) was 157.8 pg/mL. For the same substance, the “Final cytokine (IFN-γ secretion)” value (Compound 1 DP 100 μg/M s.c., 5 million cells/well, activation Compound 1 RS 12.5 μg/ml) was 257.1 pg/mL, the “Final cytokine (IFN-γ secretion)” value (Compound 1 DP 100 μg/M s.c., 5 million cells/well, activation Compound 1 RS 50 μg/ml) was 739.7 pg/mL and the “Final cytokine (IFN-γ secretion)” value (Compound 1 DP 100 μg/M s.c., 5 million cells/well, activation Compound 1 RS 100 μg/ml) was 995.5 pg/mL. For the same substance, the “Final cytokine (IFN-γ secretion)” value (Compound 1 DP 100 μg/M s.c., 5 million cells/well, activation Compound 1 RS 25 μ/ml) was 421.7 pg/mL, the “Final cytokine (IFN-γ secretion)” value (Compound 1 DP 100 μg/M s.c., 5 million cells/well, activation Con A) was 10126.8 pg/mL and the “Final cytokine (IFN-γ secretion)” value (Compound 1 DP 200 μg/M s.c., 2.5 million cells/well, activation Compound 1 RS 3.125 μg/ml) was 103.9 pg/mL. The “Final cytokine (IFN-γ secretion)” value (Compound 1 DP 200 μg/M s.c., 2.5 million cells/well, activation Compound 1 RS 6.25 μg/ml) was 126.1 pg/mL, the “Final cytokine (IFN-γ secretion)” value (Compound 1 DP 200 μg/M s.c., 2.5 million cells/well, activation Compound 1 RS 12.5 μg/ml) was 129.0 pg/mL and the “Final cytokine (IFN-γ secretion)” value (Compound 1 DP 200 μg/M s.c., 2.5 million cells/well, activation Compound 1 RS 50 μg/ml) was 378.1 pg/mL. The “Final cytokine (IFN-γ secretion)” value (Compound 1 DP 200 μg/M s.c., 2.5 million cells/well, activation Compound 1 RS 100 μg/ml) was 524.1 pg/mL, the “Final cytokine (IFN-γ secretion)” value (Compound 1 DP 200 μg/M s.c., 2.5 million cells/well, activation Compound 1 RS 25 μ/ml) was 240.3 pg/mL and the “Final cytokine (IFN-γ secretion)” value (Compound 1 DP 200 μg/M s.c., 2.5 million cells/well, activation Con A) was “BQL”. For the same substance, the “Final cytokine (IFN-γ secretion)” value (Compound 1 DP 200 μg/M s.c., 5 million cells/well, activation Compound 1 RS 3.125 μg/ml) was 204.4 pg/mL, the “Final cytokine (IFN-γ secretion)” value (Compound 1 DP 200 μg/M s.c., 5 million cells/well, activation Compound 1 RS 6.25 μg/ml) was 244.1 pg/mL and the “Final cytokine (IFN-γ secretion)” value (Compound 1 DP 200 μg/M s.c., 5 million cells/well, activation Compound 1 RS 12.5 μg/ml) was 466.1 pg/mL. The “Final cytokine (IFN-γ secretion)” value (Compound 1 DP 200 μg/M s.c., 5 million cells/well, activation Compound 1 RS 50 μg/ml) was 922.5 pg/mL, the “Final cytokine (IFN-γ secretion)” value (Compound 1 DP 200 μg/M s.c., 5 million cells/well, activation Compound 1 RS 100 μg/ml) was 1006.2 pg/mL and the “Final cytokine (IFN-γ secretion)” value (Compound 1 DP 200 μg/M s.c., 5 million cells/well, activation Compound 1 RS 25 μ/ml) was 660.5 pg/mL. The “Final cytokine (IFN-γ secretion)” value (Compound 1 DP 200 μg/M s.c., 5 million cells/well, activation Con A) was 7722.8 pg/mL and the “inhibition of IFN-γ secretion” value (all the doses used for treatment (25-200 μg/mouse)) was “Significant inhibition”.
